Patent US20190382445A1, “PEPTIDE HAVING MELANOGENESIS-INHIBITING ACTIVITY AND COMPOSITION COMPRISING SAME” (RUBY CROWN CO. LTD., priority 2016, published 2019)
Ends that are not written are not given here.

Assays:
[1] = test system: human epidermal melanocytes (HEM); experiment: Cell viability by MTT assay, HEM; format: cell-based; details: up to 300 μM, 24 hours (tested up to 1 mM)
Experimental: (§1) Cell viability was determined by 3-(4,5-dimethylthiazol-2-yl)-2,5-diphenyltetrazolium bromide (MTT) assay. B16-F10 cell line and HEM were treated with test peptides at different concentrations for 24 hours. After washing with PBS, the cells were in a culture medium 100 including 1 mg/mL MTT (Amresco, Solon, Ohio, USA) added thereto for 3 hours. After removing the culture medium, formazan accumulated in the cells was […] using isopropanol and subjected to determination of absorbance at 595 nm using a SPECTROstar Nano microplate reader (BMG LABTECH GmbH, Ortenberg, Germany).
(§2) Cell viability was determined by treating the cells with B6 at different concentrations of up to 1 mM for 24 hours (A in FIG. 5). […] Further, effects on melanin content in the cells were examined by pre-treatment of the cells with B6 peptide at different concentrations of up to 300 μM, and then, stimulating the same with α-MSH at 100 nM or tyrosine at 4 mM for […] (B, C in FIG. 5). As a positive control group for melanogenesis inhibition, arbutin was used.

B16-F10 cells [2] = experiment: Cell viability by MTT assay, B16-F10; format: cell-based, murine; details: up to 300 μM, 24 hours (tested up to 1 mM)
Experimental: as §1
Cell viability was determined by treating the cells with B6 at different concentrations up to 1 mM for 24 hours (A in FIG. 4). […] Further, effects on melanin content in the cells were examined by pre-treatment of the cells with B6 peptide at different concentrations of up to 300 μM, and then, stimulating the same with α-MSH at 100 nM for 72 hours (B in FIG. 4).

[3] = test system: human epidermal melanocytes (HEM); experiment: Melanin content in HEM stimulated with α-MSH or L-tyrosine; format: cell-based
Excerpt: FIG. 5 is an experimental result showing effects of peptide B6 on cell viability of human epidermal melanocytes (HEM), melanin content and human tyrosinase (TYR) enzymatic activity. […] The intracellular and extracellular melanin contents were normalized with respect to the total protein content. […] Data are expressed in percent (%) as mean±standard error (mean±SE, n=3) compared to the vehicle control group. In the figures, #represents p<0.05 compared to the control group and * represents p<0.05 compared to cells stimulated only with tyrosine.
(§3) Melanogenesis-inhibitory effects of the analyte (the peptides) was confirmed using the B16-F10 cell line and HEM. B16-F10 cells were treated with a test peptide at different concentrations for 60 minutes and stimulated using a 100 nM α-MSH for 72 hours. While HEM was also treated with the test peptide at different concentrations for 60 minutes and cultured with 100 nM α-MSH or 4.0 mM L-tyrosine while replacing the culture medium every 48 hours for 6 days. Using the culture medium used for culturing cells (conditioned medium), extracellular melanin level was measured. On the other hand, intercellular melanin was extracted with 0.1M NaOH at 60° C. for 60 minutes. A melanin content was determined by measuring an absorbance at 475 nm according to a spectroscopic method. The resultant values were subjected to normalization with respect to the total protein content of the cell.
as §2

B16-F10 cells [4] = experiment: Melanin content in α-MSH-stimulated B16-F10 cells (absorbance at 475 nm); format: cell-based, murine; details: for melanin inhibitory effect of short peptides compared to B6 peptide: concentrations of 100 μM to 10 μM
Experimental: FIG. 2 is an experimental result showing the effect of each hexapeptide on cellular melanin biosynthesis. FIG. 2A represents a peptide wherein the type of amino acids fixed at 3 positions in the amino acid sequence of the amino acids, while the type of amino acids is altered at the other 3 positions. FIG. 2B represents a peptide wherein the amino acid sequence was defined. The cell-based assay in FIG. 2 is conducted by treating B16-F10 cells with a vehicle or peptide at a predetermined concentration, stimulating the same with α-MSH at 100 nM, and measuring absorbance at 475 nm after 72 hours to determine melanin content. Data are expressed in percent (%) as mean ± standard error (mean±SE, n=3) compared to the vehicle control group. In the figures, # means p<0.05 compared to the control group and * means p<0.05 compared to cells stimulated only with α-MSH. The amino acid sequences described in FIG. 2 are all represented in the direction from the amino terminal to the carboxy terminal. An amino functional group (—NH2) shown in the peptide terminal is one added by carboxy terminal amidation used in peptide synthesis.
The cell-based Assay in FIG. 3 is conducted by treating B16-F10 cells with a vehicle or peptide at a predetermined concentration, stimulating the same with 100 nMα-[…], and measuring the absorbance at 475 nm after 72 hours to determine the melanin content. Data are expressed in percent (%) as mean±standard, error (mean±SE, n=3) compared to the vehicle control group. In the figures, # means p<0.05 compared to the control group and * means p<0.05 compared to cells stimulated only with α-MSH. The amino acid sequences described in FIG. 2 are all represented in the direction from the amino terminal to the carboxy terminal. An acetyl group (Ac—) shown in the peptide amino terminal or an amino functional group (—NH2) shown in the carboxy terminal is one added by chemical synthesis of peptide.
as §3

FSHHLG-NH2 [B6, Phe-Ser-His-His-Leu-Gly]
cell viability [1]: did not affect the viability | cell viability (B16-F10 cells [2]): did not affect the viability

N[C@@H](Cc1ccc(O)cc1)C(=O)O [L-tyrosine]
extracellular and intracellular melanin contents, effect of stimulus L-tyrosine ([3]; tyrosine at 4 mM, HEM): increased extracellular and intracellular melanin contents

Phe-Ser-His-His-Leu (FSHHL; C2 peptide)
melanin inhibitory effect of short peptides compared to B6 peptide (B16-F10 cells [4]; 100 nM α-MSH, 72 hours): did not substantially inhibit melanogenesis

Ser-His-His-Leu-Gly (SHHLG; C3 peptide)
melanogenesis inhibitory effect of short peptide (B16-F10 cells [4]; 100 μM, 100 nM α-MSH, 72 hours): excellent in melanogenesis inhibitory effect

FSHHLG [C1]
melanin inhibitory effect of short peptides compared to B6 peptide (B16-F10 cells [4]; 100 nM α-MSH, 72 hours): melanin inhibitory effect similar to B6 peptide

Ac-Ser-Tyr-Ser-Met-Glu-His-Phe-Arg-Trp-Gly-Lys-Pro-Val-NH2 (Ac-SYSMEHFRWGKPV-NH2) [α-MSH, agent of melanocortin 1 receptor used to stimulate melanogenesis, reference compound]
melanogenesis, effect of stimulus α-MSH ([3]; α-MSH at 100 nM, HEM): did not show significant effect on melanogenesis | melanin content, effect of stimulus (B16-F10 cells [4]; α-MSH alone, B16-F10 cells): increased melanin content

OC[C@H]1O[C@@H](Oc2ccc(O)cc2)[C@H](O)[C@@H](O)[C@@H]1O [arbutin]
inhibition of increase in melanin content by L-tyrosine ([3]; HEM stimulated with 4 mM L-tyrosine, peptide up to 300 μM): effectively inhibited
